Source: patent publication US20220395553A1, “CXCR4 ANTAGONIST PEPTIDES” (COHBAR, INC., priority 2019, published 2022)
Square brackets hold non-standard residues; d marks the D form. Peptide text beside a SMILES is read from it.

How the values were obtained:
Jurkat cells = test: CXCL12 mediated cell migration, Jurkat cells; format: cell-based, human; conditions: 1.1 μM test article, 100 ng/ml CXCL12, 1 hour
Experimental: The assay was performed following a protocol similar to that described by Peng, et al., Mol Cancer Ther., 14480-90 (2015), incorporated herein by reference. Peptides were initially prepared as 1 mM stock in H2O and tested at a final concentration of 1.1 μM. […] Jurkat cells were resuspended in serum free media (RPMI+GlutaMax; Gibco/Thermo Fisher Scientific; Gaithersburg, Md.) containing 0.5% bovine serum albumin at density of 5×10^6 cells/ml. […] Cells (250,000 cells in 50 μl) supplemented with the appropriate treatments were seeded on to the upper chamber of a 96-well 5 μm HTS Transwell filter insert (Corning/Costar; Tewksbury, Mass.). […] Filter inserts were immediately placed on top of 96-well receiver trays and placed at 37° C. in a humidified atmosphere of 5% CO2/95% air for 1 hour. Following the 1 hour incubation period the filter inserts were carefully removed and the migration of cells across the filter into the bottom chamber (receiver wells) was determined by measuring ATP levels using Cell TiterGlo 2.0, according to manufacturer's instructions (Promega; Madison, Wis.); luminescence was measured using a Cytation 3 plate reader (BioTek; Winooski, Vt.).

[1] = test system: CXCR4/CXCL12 induced p-MEK; test: CXCR4/CXCL12 induced p-MEK in Jurkat cells (ELISA); format: cell-based, human; conditions: 5 nM CXCL12, 5 min
Procedure, shortened: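 Jurkat cells in RPMI+GlutaMax containing 10% FBS and 1% penicillin/streptomycin, fresh or conditioned, were resuspended at 2×10^6 cells/ml and […] aliquots placed in tubes. After a 5 min stimulation they were pelleted, rinsed with HBSS and lysed with PMSF and protease/phosphatase inhibitors. Phospho-MEK1 (Ser217/221) was quantified by sandwich ELISA with absorbance read at 450 nm.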

human CXCR4 [2] = biological target: T1, human CXCR4 (Homo sapiens, UniProt P61073); test: CXCR4/CXCL12 binding, HTRF format, single concentration (Example 23); set-up: host or cells: HEK293 (Tag-lite CXCR4 cells, frozen aliquots, transient expression); conditions: 15 nM CXCR4R fluorescent probe, 3 hours, HEK293 Tag-lite CXCR4 cells
T1 sequence (P61073 whole entry): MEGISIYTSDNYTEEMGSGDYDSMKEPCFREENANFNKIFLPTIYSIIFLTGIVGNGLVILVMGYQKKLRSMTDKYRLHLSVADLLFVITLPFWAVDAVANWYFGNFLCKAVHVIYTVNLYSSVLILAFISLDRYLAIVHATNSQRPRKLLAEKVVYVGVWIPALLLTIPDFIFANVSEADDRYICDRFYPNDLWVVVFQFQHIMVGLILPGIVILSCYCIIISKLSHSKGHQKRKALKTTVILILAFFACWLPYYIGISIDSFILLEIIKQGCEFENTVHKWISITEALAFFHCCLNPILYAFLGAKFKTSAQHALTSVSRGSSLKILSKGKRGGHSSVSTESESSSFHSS
Procedure, shortened: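 Tag-lite CXCR4 cells were exposed to peptide at 400 nM final with 15 nM (EC80) fluorescent CXCR4 probe for 3 h at room temperature. HTRF was read, and the 665/620 nm ratio ×10,000 measured probe bound to terbium-labelled receptor.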

human CXCR4 [3] = biological target: T1, human CXCR4; test: IC50 for CXCR4/CXCL12 ligand binding, HTRF format (Example 24); set-up: host or cells: HEK293 (Tag-lite CXCR4 cells, frozen aliquots, transient expression)
Experimental: Peptides were initially prepared as 1 mM stock in H2O. […] Following the manufacture's protocol, a frozen aliquot of Tag-lite CXCR4 cells was thawed and immediately seeded onto 384-well plates in TLB. […] The plates were covered in aluminum foil and left at room temperature for 3 hours. Following the 3 hour incubation period, the plates were removed from the incubator and fluorescence measured using a Cytation 1 plate reader using a HTRF filter cube ([…]; BioTek; Winooski, Vt.).

human CXCR4 [4] = biological target: T1, human CXCR4; test: IC50 for inhibition of CXCR4 activation, β-Arrestin recruitment (Example 22); format: cell-based; set-up: host or cells: C2C12 (mouse myoblast) CXCR4 β-Arrestin PathHunter cell line
Procedure, shortened: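 C2C12 cells co-expressing ProLink-tagged human CXCR4 and Enzyme Acceptor-tagged β-arrestin (PathHunter). Peptides tested in 10-point, 3-fold dilutions from 1 μM (1 μM–0.05 nM). Recruitment read by chemiluminescent enzyme-fragment complementation after 90 min incubation.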

Percent Inhibition of CXCR4/CXCL12 Binding (400 nM peptide) (human CXCR4 [2]) | IC50 (human CXCR4 [3]) | IC50 (human CXCR4 [4]) | Structure (SMILES) | Percent Inhibition of CXCL12 Mediated Migration (1.1 μM Test Article) (Jurkat cells) | Percent Inhibition of CXCR4/CXCL12 Induced p-MEK (100 nM Test Article) [1] | Percent Inhibition of CXCR4/CXCL12 Induced p-MEK (1 μM Test Article) [1]
89% | 5 nM | – | CC(C)C[C@H](NC(=O)[C@H](CO)NC(=O)[C@H](CO)NC(=O)[C@H](CCCNC(=N)N)NC(=O)[C@@H](NC(=O)[C@H](CO)NC(=O)[C@H](Cc1c[nH]cn1)NC(=O)[C@H](Cc1c[nH]cn1)NC(=O)[C@H](Cc1ccc(O)cc1)NC(=O)[C@H](CCCNC(=N)N)NC(=O)[C@H](CC(=O)O)NC(=O)[C@@H](N)CC(C)C)C(C)C)C(=O)N[C@@H](CCCNC(=N)N)C(=O)N1CCC[C@H]1C(=O)N[C@@H](Cc1ccc(O)cc1)C(=O)N[C@H](C(=O)N[C@@H](CCCCN)C(=O)O)[C@@H](C)O [compound 7] (H-LDRYHHSVRSSLRPYTK-OH; N-terminus and C-terminus assumed) | 52% | 60% | 96%
81% | 11 nM | 4 nM | CC(C)C[C@H](NC(=O)[C@H](CO)NC(=O)[C@H](CO)NC(=O)[C@H](CCCNC(=N)N)NC(=O)[C@@H](NC(=O)[C@H](CO)NC(=O)[C@H](Cc1c[nH]cn1)NC(=O)[C@H](Cc1c[nH]cn1)NC(=O)[C@H](Cc1ccc(O)cc1)NC(=O)[C@H](CCCNC(=N)N)NC(=O)[C@H](CCC(=O)O)NC(=O)[C@@H](N)CC(C)C)C(C)C)C(=O)N[C@@H](CCCNC(=N)N)C(=O)N1CCC[C@H]1C(=O)N[C@@H](Cc1ccc(O)cc1)C(=O)N[C@@H](CO)C(=O)N[C@@H](CCCCN)C(=O)O [compound 75] (H-LERYHHSVRSSLRPYSK-OH; N-terminus and C-terminus assumed) | 81% | 60% | 100%
88% | 6 nM | 4 nM | CC(C)C[C@H](NC(=O)[C@H](CO)NC(=O)[C@H](CO)NC(=O)[C@H](CCCNC(=N)N)NC(=O)[C@@H](NC(=O)[C@H](CO)NC(=O)[C@H](Cc1c[nH]cn1)NC(=O)[C@H](Cc1c[nH]cn1)NC(=O)[C@H](Cc1ccc(O)cc1)NC(=O)[C@H](CCCNC(=N)N)NC(=O)[C@H](CCC(=O)O)NC(=O)[C@@H](N)CC(C)C)C(C)C)C(=O)N[C@@H](CCCNC(=N)N)C(=O)NCC(=O)N[C@@H](Cc1ccc(O)cc1)C(=O)N[C@H](C(=O)N[C@@H](CCCCN)C(=O)O)[C@@H](C)O [compound 80] (H-LERYHHSVRSSLRGYTK-OH; N-terminus and C-terminus assumed) | 71% | 52% | 96%
−2% | 573 nM | 8 nM | CC(C)C[C@H](NC(=O)[C@H](CO)NC(=O)[C@H](CO)NC(=O)[C@H](CCCNC(=N)N)NC(=O)[C@@H](NC(=O)[C@H](CO)NC(=O)[C@H](Cc1c[nH]cn1)NC(=O)[C@H](Cc1c[nH]cn1)NC(=O)[C@H](Cc1ccc(O)cc1)NC(=O)[C@H](CCCNC(=N)N)NC(=O)[C@H](CCCNC(=N)N)NC(=O)[C@@H](N)CC(C)C)C(C)C)C(=O)N[C@@H](CCCNC(=N)N)C(=O)N1CCC[C@H]1C(=O)N[C@@H](Cc1ccc(O)cc1)C(=O)N[C@H](C(=O)N[C@@H](CCCCN)C(N)=O)[C@@H](C)O [compound 16] (H-LRRYHHSVRSSLRPYTK-NH2; N-terminus assumed) | 21% | 74% | 100%
87% | – | 4 nM | CC(C)C[C@H](NC(=O)[C@H](CO)NC(=O)[C@@H](NC(=O)[C@H](CCCNC(=N)N)NC(=O)[C@@H](NC(=O)[C@H](CO)NC(=O)[C@H](Cc1c[nH]cn1)NC(=O)[C@H](Cc1c[nH]cn1)NC(=O)[C@H](Cc1ccc(O)cc1)NC(=O)[C@H](CCCNC(=N)N)NC(=O)[C@H](CCC(=O)O)NC(=O)[C@@H](N)CC(C)C)C(C)C)[C@@H](C)O)C(=O)N[C@@H](CCCNC(=N)N)C(=O)N1CCC[C@H]1C(=O)N[C@@H](Cc1ccc(O)cc1)C(=O)N[C@H](C(=O)N[C@@H](CCCCN)C(=O)O)[C@@H](C)O [compound 73] (H-LERYHHSVRTSLRPYTK-OH; N-terminus and C-terminus assumed) | 82% | 47% | 96%
86% | – | 3 nM | CC(C)C[C@H](NC(=O)[C@H](CO)NC(=O)[C@H](CO)NC(=O)[C@H](CCCNC(=N)N)NC(=O)[C@@H](C)NC(=O)[C@H](CO)NC(=O)[C@H](Cc1c[nH]cn1)NC(=O)[C@H](Cc1c[nH]cn1)NC(=O)[C@H](Cc1ccc(O)cc1)NC(=O)[C@H](CCCNC(=N)N)NC(=O)[C@H](CC(=O)O)NC(=O)[C@@H](N)CC(C)C)C(=O)N[C@@H](CCCNC(=N)N)C(=O)N1CCC[C@H]1C(=O)N[C@@H](Cc1ccc(O)cc1)C(=O)N[C@H](C(=O)N[C@@H](CCCCN)C(=O)O)[C@@H](C)O [compound 8] (H-LDRYHHS[dA]RSSLRPYTK-OH; N-terminus and C-terminus assumed) | 94% | 32% | 88%
12% | 175 nM | 3 nM | CC(C)C[C@H](NC(=O)[C@H](CO)NC(=O)[C@H](CO)NC(=O)[C@H](CCCNC(=N)N)NC(=O)[C@@H](NC(=O)[C@@H](NC(=O)[C@H](Cc1c[nH]cn1)NC(=O)[C@H](Cc1c[nH]cn1)NC(=O)[C@H](Cc1ccc(O)cc1)NC(=O)[C@H](CCCNC(=N)N)NC(=O)[C@H](CCCNC(=N)N)NC(=O)[C@@H](N)CC(C)C)[C@@H](C)O)C(C)C)C(=O)N[C@@H](CCCNC(=N)N)C(=O)N1CCC[C@H]1C(=O)N[C@@H](Cc1ccc(O)cc1)C(=O)N[C@H](C(=O)N[C@@H](CCCCN)C(=O)O)[C@@H](C)O [compound 38] (H-LRRYHHTVRSSLRPYTK-OH; N-terminus and C-terminus assumed) | – | 51% | 96%
12% | – | 3 nM | CC(C)C[C@H](NC(=O)[C@H](CO)NC(=O)[C@H](CO)NC(=O)[C@H](CCCNC(=N)N)NC(=O)[C@@H](NC(=O)[C@H](CO)NC(=O)[C@H](Cc1c[nH]cn1)NC(=O)[C@H](Cc1c[nH]cn1)NC(=O)[C@H](Cc1ccc(O)cc1)NC(=O)[C@H](CCCNC(=N)N)NC(=O)[C@H](CCCNC(=N)N)NC(=O)[C@@H](N)CC(C)C)C(C)C)C(=O)N[C@@H](CCCNC(=N)N)C(=O)NCC(=O)N[C@@H](Cc1ccc(O)cc1)C(=O)N[C@H](C(=O)N[C@@H](CCCCN)C(=O)O)[C@@H](C)O [compound 79] (H-LRRYHHSVRSSLRGYTK-OH; N-terminus and C-terminus assumed) | 36% | 46% | 100%
